Data set [1] has as its target T1, [Pyruvate dehydrogenase (acetyl-transferring)] kinase isozyme 2, mitochondrial (Homo sapiens, UniProt Q15119). Briefly: Inhibition of N-terminal His6-SUMO tagged recombinant human PDK2 using [32P]-gamma-ATP assessed as decrease in incorporation of radioactivity into E1 protein incubated for 2 mins.
Data set [2] deals with T2, [Pyruvate dehydrogenase (acetyl-transferring)] kinase isozyme 1, mitochondrial (Homo sapiens, UniProt Q15118). Nature of the data set: Inhibition of recombinant human PDK1 in presence of E1 protein incubated for 10 mins by titration assay.
Data set [3] addresses T3, [Pyruvate dehydrogenase (acetyl-transferring)] kinase isozyme 3, mitochondrial (Homo sapiens, UniProt Q15120). Nature of the data set: Inhibition of recombinant human PDK3 in presence of E1 protein incubated for 10 mins by titration assay.
Data set [4] addresses T4, [Pyruvate dehydrogenase (acetyl-transferring)] kinase isozyme 4, mitochondrial (Homo sapiens, UniProt Q16654). Briefly: Inhibition of recombinant human PDK4 in presence of E1 protein incubated for 10 mins by titration assay.
The target in data set [5] is T2, [Pyruvate dehydrogenase (acetyl-transferring)] kinase isozyme 1, mitochondrial. Nature of the data set: Inhibition of recombinant human PDK1 in presence of E1 protein and PDC core E2/E3BP incubated for 10 mins by titration assay.
The target in data set [6] is T1, [Pyruvate dehydrogenase (acetyl-transferring)] kinase isozyme 2, mitochondrial. Briefly: Inhibition of N-terminal His6-SUMO tagged recombinant human PDK2 in presence of E1 protein and PDC core E2/E3BP incubated for 10 mins by titration assay.
For data set [7], the target named is T3, [Pyruvate dehydrogenase (acetyl-transferring)] kinase isozyme 3, mitochondrial. Nature of the data set: Inhibition of recombinant human PDK3 in presence of E1 protein and PDC core E2/E3BP incubated for 10 mins by titration assay.
The target in data set [8] is T4, [Pyruvate dehydrogenase (acetyl-transferring)] kinase isozyme 4, mitochondrial. Briefly: Inhibition of recombinant human PDK4 in presence of E1 protein and PDC core E2/E3BP incubated for 10 mins by titration assay.
The target in data set [9] is T1, [Pyruvate dehydrogenase (acetyl-transferring)] kinase isozyme 2, mitochondrial. Briefly: Binding affinity to N-terminal His6-SUMO tagged recombinant human PDK2 by isothermal titration calorimetry.
For data set [10], the system named is Plasma. Nature of the data set: Terminal half life in CD1 mouse plasma at 30 mg/kg, ip by LC-MS/MS analysis. In kind it is ADME, organism-based. The settings on record: in vivo.
The test system of data set [11] is Plasma. Briefly: Cmax in CD1 mouse plasma at 30 mg/kg, ip by LC-MS/MS analysis. In kind it is ADME, organism-based. Details: dose 30 mg/kg, route intraperitoneal. The settings on record: in vivo.
Data set [12] is described as follows: Tmax in CD1 mouse plasma at 30 mg/kg, ip by LC-MS/MS analysis. Format: ADME, organism-based.
For data set [13], the system named is Plasma. Briefly: AUClast in CD1 mouse plasma at 30 mg/kg, ip by LC-MS/MS analysis. Details: dose 30 mg/kg, route intraperitoneal, time 0 - last. The settings on record: in vivo. In kind it is ADME, organism-based.
The subject of data set [14] is Plasma. Nature of the data set: Apparent volume of distribution during terminal phase in CD1 mouse plasma at 30 mg/kg, ip by LC-MS/MS analysis. In kind it is ADME, organism-based. The settings on record: in vivo.
Data set [15] can be described thus: Apparent clearance in CD1 mouse plasma at 30 mg/kg, ip by LC-MS/MS analysis. In kind it is ADME, organism-based.
Data set [16] can be described thus: Terminal half life in CD1 mouse muscle at 30 mg/kg, ip by LC-MS/MS analysis. In kind it is ADME, organism-based, Muscle tissue. The settings on record: read-out: beta t1/2.
The nature of data set [17]: Cmax in CD1 mouse muscle at 30 mg/kg, ip by LC-MS/MS analysis. Format: ADME, organism-based, Muscle tissue. More on the design: dose 30 mg/kg, route intraperitoneal.
Data set [18] can be described thus: Tmax in CD1 mouse muscle at 30 mg/kg, ip by LC-MS/MS analysis. Format: ADME, organism-based, Muscle tissue.
Data set [19] is described as follows: AUClast in CD1 mouse muscle at 30 mg/kg, ip by LC-MS/MS analysis. Format: ADME, organism-based, Muscle tissue. The settings on record: in vivo.
A short description of data set [20]: Apparent clearance in CD1 mouse muscle at 30 mg/kg, ip by LC-MS/MS analysis. Format: ADME, organism-based, Muscle tissue. The settings on record: in vivo.
A short description of data set [21]: Apparent volume of distribution during terminal phase in CD1 mouse muscle at 30 mg/kg, ip by LC-MS/MS analysis. In kind it is ADME, organism-based, Muscle tissue. The settings on record: in vivo.
The test system of data set [22] is Liver. Briefly: Terminal half life in CD1 mouse liver at 30 mg/kg, ip by LC-MS/MS analysis. In kind it is ADME, organism-based. The settings on record: in vivo.
In data set [23] the test system is Liver. Briefly: Cmax in CD1 mouse liver at 30 mg/kg, ip by LC-MS/MS analysis. Format: ADME, organism-based. Details: dose 30 mg/kg, route intraperitoneal. The settings on record: in vivo.
For data set [24], the system named is Liver. Briefly: Tmax in CD1 mouse liver at 30 mg/kg, ip by LC-MS/MS analysis. Format: ADME, organism-based. The settings on record: in vivo.
For data set [25], the system named is Liver. Nature of the data set: AUClast in CD1 mouse liver at 30 mg/kg, ip by LC-MS/MS analysis. Format: ADME, organism-based. The settings on record: in vivo.
The test system of data set [26] is Liver. Nature of the data set: Apparent volume of distribution during terminal phase in CD1 mouse liver at 30 mg/kg, ip by LC-MS/MS analysis. In kind it is ADME, organism-based. The settings on record: in vivo.
For data set [27], the system named is Liver. Nature of the data set: Apparent clearance in CD1 mouse liver at 30 mg/kg, ip by LC-MS/MS analysis. In kind it is ADME, organism-based. The settings on record: in vivo.
Data set [28] relates to Mus musculus. Nature of the data set: In vivo inhibition of PDK in DIO C57BL/6J mouse assessed as increase in PDC activity in liver at 40 to 45 mg/kg/day administered through mini osmotic pump for 2 weeks relative to control. Format: functional.

T3 sequence (Q15120 whole entry): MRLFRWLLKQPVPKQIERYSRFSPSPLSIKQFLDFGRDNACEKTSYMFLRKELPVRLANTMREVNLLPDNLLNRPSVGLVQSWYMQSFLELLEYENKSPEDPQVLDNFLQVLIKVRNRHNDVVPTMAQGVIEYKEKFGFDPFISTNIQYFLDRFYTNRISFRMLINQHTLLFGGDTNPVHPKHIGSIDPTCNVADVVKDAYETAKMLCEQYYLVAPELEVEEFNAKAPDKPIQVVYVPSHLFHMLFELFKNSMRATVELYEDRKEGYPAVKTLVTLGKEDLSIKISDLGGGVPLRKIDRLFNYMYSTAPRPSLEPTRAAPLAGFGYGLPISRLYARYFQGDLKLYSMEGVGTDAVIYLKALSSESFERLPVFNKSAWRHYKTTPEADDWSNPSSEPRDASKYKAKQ
T2 sequence (Q15118 whole entry): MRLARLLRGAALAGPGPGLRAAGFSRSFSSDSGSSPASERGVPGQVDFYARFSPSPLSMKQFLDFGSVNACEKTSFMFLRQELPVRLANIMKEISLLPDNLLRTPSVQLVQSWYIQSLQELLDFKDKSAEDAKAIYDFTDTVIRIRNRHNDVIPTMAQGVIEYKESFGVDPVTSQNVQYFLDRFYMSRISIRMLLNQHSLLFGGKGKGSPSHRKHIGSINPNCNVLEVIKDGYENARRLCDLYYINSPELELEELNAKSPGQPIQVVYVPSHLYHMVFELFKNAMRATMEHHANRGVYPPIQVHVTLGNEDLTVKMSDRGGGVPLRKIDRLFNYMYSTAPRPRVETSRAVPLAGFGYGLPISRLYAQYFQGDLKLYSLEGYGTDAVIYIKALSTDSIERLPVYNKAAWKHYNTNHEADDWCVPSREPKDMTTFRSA
T4 sequence (Q16654 whole entry): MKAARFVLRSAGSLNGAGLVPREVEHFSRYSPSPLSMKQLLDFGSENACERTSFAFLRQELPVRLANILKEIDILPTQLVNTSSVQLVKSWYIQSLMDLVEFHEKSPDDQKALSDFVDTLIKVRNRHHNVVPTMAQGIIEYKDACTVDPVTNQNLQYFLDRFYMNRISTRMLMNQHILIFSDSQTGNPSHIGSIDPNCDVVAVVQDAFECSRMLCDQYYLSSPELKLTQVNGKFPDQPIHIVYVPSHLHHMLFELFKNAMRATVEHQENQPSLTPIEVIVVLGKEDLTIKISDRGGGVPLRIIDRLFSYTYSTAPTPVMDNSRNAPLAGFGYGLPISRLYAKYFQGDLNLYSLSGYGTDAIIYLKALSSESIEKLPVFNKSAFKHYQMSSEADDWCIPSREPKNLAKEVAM

Take `O=S(=O)(c1ccc(O)cc1O)N1Cc2ccc(NC3CCN(Cc4ccccc4)CC3)cc2C1`: the IC50 in data set [1] was 416 nM.
For `NC(=O)C[C@H](N)C(=O)N1CCN(c2ccc3c(c2)CN(S(=O)(=O)c2ccc(O)cc2O)C3)CC1`, the IC50 in data set [1] was 767 nM.
On the same count and under the same terms, to `O=S(=O)(c1ccc(O)cc1O)N1Cc2ccc(NC3CCCCC3)cc2C1` belongs 1200 nM.
With `NC(=O)C[C@H](N)C(=O)N1CCC(Nc2ccc3c(c2)CN(S(=O)(=O)c2ccc(O)cc2O)C3)CC1`, the IC50 in data set [1] turned out to be 58 nM; in [2], 2540 nM; in [3], 45800 nM; in data set [4], 284 nM; in data set [5] it was 2060 nM; in data set [6], 81 nM. Moreover, the IC50 came to 1710 nM in [7] and 416 nM in data set [8]. For the same compound, the Kd in data set [9] is 22 nM. Further, the “beta t1/2” value in data set [10] is 288 min; in data set [22], 303 min. Besides, the values for the Cmax in data set [11], in data set [17] and in data set [23] were 5443 ng/mL, 2420 ng/g and 18767 ng/g, respectively. For the same compound, the Tmax in data set [12] is 10 min; in [18], 10 min; in [24], 30 min. Further, the AUClast in [13] was found to be 234088 ng·min/mL; in data set [19] it was 83083 ng·min/g; in [25], 2682301 ng·min/g. Also, the Vz/F in data set [14] was 1289 mL; in [21], 4043 g; in data set [26], 116 g. For the same compound, the CL/F in data set [15] came to 3.11 mL/min; in [20] it was 8.64 g/min; in [27] it was 0.266 g/min. Besides, the half-life in data set [16] was 324 min. In addition, the “fold change (FC)” value in data set [28] is recorded as 6.
Regarding `NC(=O)C[C@H](N)C(=O)NCCCNc1ccc2c(c1)CN(S(=O)(=O)c1ccc(O)cc1O)C2`, in data set [1], the half-inhibitory concentration (IC50) worked out at 67 nM.
Still for that read-out and setting: in the case of `NC(=O)C[C@H](N)C(=O)N1CC[C@H](Nc2ccc3c(c2)CN(S(=O)(=O)c2ccc(O)cc2O)C3)C1` it was 156 nM; in that of `O=C(O)CCCCCCCC(=O)N1CCC(Nc2ccc3c(c2)CN(S(=O)(=O)c2ccc(O)cc2O)C3)CC1`, 629 nM; in that of `O=S(=O)(c1ccc(O)cc1O)N1Cc2ccc(N3CCCCC3)cc2C1`, 4370 nM.
The same measure, in the same setting: to `NC(=O)CC[C@H](N)C(=O)N1CCC(Nc2ccc3c(c2)CN(S(=O)(=O)c2ccc(O)cc2O)C3)CC1` belongs 72 nM; to `O=S(=O)(c1ccc(O)cc1O)N1Cc2ccc(N3CCNCC3)cc2C1`, 1350 nM.
`NCCCC[C@H](N)C(=O)N1CCC(Nc2ccc3c(c2)CN(S(=O)(=O)c2ccc(O)cc2O)C3)CC1`: the IC50 in data set [1] was 580 nM.
Same read-out and setting: in the case of `O=C(C1C[C@@H](O)C(O)[C@H](O)C1)N1CCC(Nc2ccc3c(c2)CN(S(=O)(=O)c2ccc(O)cc2O)C3)CC1` (stereo not given in full) it was 432 nM.
For `O=C(O)CCCCC(=O)N1CCC(Nc2ccc3c(c2)CN(S(=O)(=O)c2ccc(O)cc2O)C3)CC1`, the IC50 in [1] turned out to be 1610 nM.

Values taken from ChEMBL document CHEMBL3997786, “Development of Dihydroxyphenyl Sulfonylisoindoline Derivatives as Liver-Targeting Pyruvate Dehydrogenase Kinase Inhibitors” (J Med Chem, 2017).
